Assay results: patent publication US6034231A, “Human CNP gene and precursor protein” (Suntory Limited, priority 1990, dated 2000)
Positions of bridges follow the written chain, without caps; N, C: chain ends. No end group written: not given here.

Test system: chick rectum
Conditions: read-out: EC50, chick rectum relaxant activity; isolated chick rectum
Procedure: A chick rectum relaxant activity measurement was conducted in accordance with the method of Currie et al. described in Nature, 221, 1-13, 1983.

DLRVDTKSRAAWARLLQEHPNARKYKGANKKGLSKGCFGLKLDRIGSMSGLGC (disulfide 37-53) [hCNP-53]
EC50: 0.87 ± 0.1 nM
